# Laboratory results published in ChEMBL document CHEMBL4265938, “Donepezil-based multi-functional cholinesterase inhibitors for treatment of Alzheimer's disease” (Eur J Med Chem, 2018).
# Experiments:
# Acetylcholinesterase [1] = target: T1, Acetylcholinesterase (Homo sapiens, UniProt P22303); assay: Inhibition of recombinant human AChE using acetylthiocholine iodide as substrate preincubated for 20 mins followed by substrate addition measured after 5 mins by Ellman's method
# Acetylcholinesterase [2] = target: T2, Acetylcholinesterase (Electrophorus electricus, UniProt O42275); assay: Inhibition of electric eel AChE using acetylthiocholine iodide as substrate preincubated for 5 mins followed by substrate addition measured after 5 mins by Ellman's method
# Acetylcholinesterase [3] = target: T1, Acetylcholinesterase; assay: Inhibition of recombinant human AChE using acetylthiocholine iodide as substrate preincubated for 5 mins followed by substrate addition measured after 5 mins by Ellman's method
# [4] = target: Amyloid-beta precursor protein (Homo sapiens) (UniProt P05067); assay: Inhibition of recombinant human HFIP-pretreated amyloid beta (1 to 42) self aggregation at 10 uM after 24 hrs by ThT-based fluorometric method relative to control
# Cholinesterase [5] = target: T3, Cholinesterase (Equus caballus, UniProt P81908); assay: Inhibition of equine serum BuChE
# [6] = Antioxidant activity assessed as trolox equivalent of AAPH-induced radical scavenging activity at 70 nM preincubated for 15 mins followed by AAPH addition measured every min for 80 mins by ORAC-FL assay; format: functional
# Acetylcholinesterase [7] = target: T2, Acetylcholinesterase; assay: Inhibition of electric eel AChE
# Acetylcholinesterase [8] = target: T2, Acetylcholinesterase; assay: Mixed type inhibition of electric eel AChE
# Cholinesterase [9] = target: T3, Cholinesterase; assay: Mixed type inhibition of equine serum BuChE
# [10] = Selectivity ratio of IC50 for electric eel AChE to IC50 for equine serum BuChE
# [11] = target: T4, Amine oxidase [flavin-containing] A (Homo sapiens, UniProt P21397); assay: Inhibition of human MAOA
# T4 sequence (P21397 whole entry): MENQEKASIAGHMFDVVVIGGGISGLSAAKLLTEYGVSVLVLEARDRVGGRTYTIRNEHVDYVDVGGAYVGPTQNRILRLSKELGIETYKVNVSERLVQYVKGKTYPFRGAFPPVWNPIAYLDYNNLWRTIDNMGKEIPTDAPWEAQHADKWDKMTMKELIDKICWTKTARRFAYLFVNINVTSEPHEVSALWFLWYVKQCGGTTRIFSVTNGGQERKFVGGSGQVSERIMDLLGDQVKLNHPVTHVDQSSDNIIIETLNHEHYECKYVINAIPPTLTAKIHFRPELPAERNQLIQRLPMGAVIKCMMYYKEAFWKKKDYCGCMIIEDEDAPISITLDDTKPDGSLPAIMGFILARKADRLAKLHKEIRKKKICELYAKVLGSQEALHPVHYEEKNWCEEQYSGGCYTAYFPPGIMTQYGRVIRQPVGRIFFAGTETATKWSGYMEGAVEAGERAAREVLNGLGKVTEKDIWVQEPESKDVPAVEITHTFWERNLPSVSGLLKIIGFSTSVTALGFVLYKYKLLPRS
# [12] = Effective permeability of the compound; format: ADME; conditions: not told; read-out: Peff
# [13] = target: T5, Amine oxidase [flavin-containing] B (Homo sapiens, UniProt P27338); assay: Inhibition of human MAOB
# T5 sequence (P27338 whole entry): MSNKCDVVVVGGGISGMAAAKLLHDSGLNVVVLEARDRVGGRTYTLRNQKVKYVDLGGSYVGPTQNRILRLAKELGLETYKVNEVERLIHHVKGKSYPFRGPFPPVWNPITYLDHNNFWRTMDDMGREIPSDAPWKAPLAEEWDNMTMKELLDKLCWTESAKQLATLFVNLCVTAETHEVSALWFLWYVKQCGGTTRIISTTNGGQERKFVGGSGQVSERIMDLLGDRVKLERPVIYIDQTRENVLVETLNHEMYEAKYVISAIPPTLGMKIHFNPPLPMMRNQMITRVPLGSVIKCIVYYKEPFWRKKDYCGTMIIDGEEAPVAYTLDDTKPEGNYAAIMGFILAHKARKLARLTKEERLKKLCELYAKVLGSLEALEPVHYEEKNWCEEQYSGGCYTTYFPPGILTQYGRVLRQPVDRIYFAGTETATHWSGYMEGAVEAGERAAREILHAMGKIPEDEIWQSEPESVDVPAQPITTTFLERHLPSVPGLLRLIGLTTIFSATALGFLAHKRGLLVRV
# Acetylcholinesterase [14] = target: T2, Acetylcholinesterase; assay: Inhibition of electric eel AChE using acetylthiocholine iodide as substrate preincubated for 20 mins followed by substrate addition measured after 5 mins by Ellman's method
# Cholinesterase [15] = target: T3, Cholinesterase; assay: Inhibition of equine serum BuChE using butyrylthiocholine iodide as substrate preincubated for 20 mins followed by substrate addition measured after 30 mins by Ellman's method
# [16] = target: T5, Amine oxidase [flavin-containing] B; assay: Inhibition of recombinant human MAOB using tyramine hydrochloride as substrate preincubated for 30 mins followed by substrate addition measured for 1 hr by fluorometric method
# Beta-secretase 1 = Beta-secretase 1 (Homo sapiens, UniProt P56817); assay: Inhibition of BACE-1 (unknown origin)
# Chain of Beta-secretase 1 (P56817 whole entry): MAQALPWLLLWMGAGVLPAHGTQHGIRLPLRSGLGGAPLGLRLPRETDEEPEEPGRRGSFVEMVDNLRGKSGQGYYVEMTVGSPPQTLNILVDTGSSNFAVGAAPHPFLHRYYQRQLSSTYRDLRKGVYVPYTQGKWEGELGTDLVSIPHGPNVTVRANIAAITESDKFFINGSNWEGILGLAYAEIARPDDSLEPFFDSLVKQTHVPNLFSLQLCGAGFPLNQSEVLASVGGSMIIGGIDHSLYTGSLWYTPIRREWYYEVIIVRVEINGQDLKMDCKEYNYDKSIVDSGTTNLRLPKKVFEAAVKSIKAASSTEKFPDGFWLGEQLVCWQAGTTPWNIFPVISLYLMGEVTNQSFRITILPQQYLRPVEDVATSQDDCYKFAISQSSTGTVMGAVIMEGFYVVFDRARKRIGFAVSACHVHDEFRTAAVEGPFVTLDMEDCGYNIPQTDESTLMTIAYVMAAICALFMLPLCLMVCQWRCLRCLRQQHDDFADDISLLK
# T2 sequence (O42275 whole entry): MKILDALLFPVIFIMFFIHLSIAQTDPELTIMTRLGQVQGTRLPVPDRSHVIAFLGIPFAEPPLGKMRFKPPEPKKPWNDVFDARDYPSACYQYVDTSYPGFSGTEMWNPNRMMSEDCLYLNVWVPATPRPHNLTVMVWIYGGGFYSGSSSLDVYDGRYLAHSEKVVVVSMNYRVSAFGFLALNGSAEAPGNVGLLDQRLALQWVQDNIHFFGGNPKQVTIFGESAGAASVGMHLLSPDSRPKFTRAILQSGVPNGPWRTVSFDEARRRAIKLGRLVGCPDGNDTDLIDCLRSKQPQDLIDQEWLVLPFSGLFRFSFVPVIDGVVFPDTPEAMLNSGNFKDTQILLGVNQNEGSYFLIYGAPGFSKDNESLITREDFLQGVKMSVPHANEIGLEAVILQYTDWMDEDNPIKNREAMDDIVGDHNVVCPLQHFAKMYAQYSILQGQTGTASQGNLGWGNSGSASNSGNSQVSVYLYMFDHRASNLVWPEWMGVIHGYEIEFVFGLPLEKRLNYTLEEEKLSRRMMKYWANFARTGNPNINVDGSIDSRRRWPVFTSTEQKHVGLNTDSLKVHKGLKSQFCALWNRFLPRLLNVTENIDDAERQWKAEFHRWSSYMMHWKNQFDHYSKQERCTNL
# T3 sequence (P81908 whole entry): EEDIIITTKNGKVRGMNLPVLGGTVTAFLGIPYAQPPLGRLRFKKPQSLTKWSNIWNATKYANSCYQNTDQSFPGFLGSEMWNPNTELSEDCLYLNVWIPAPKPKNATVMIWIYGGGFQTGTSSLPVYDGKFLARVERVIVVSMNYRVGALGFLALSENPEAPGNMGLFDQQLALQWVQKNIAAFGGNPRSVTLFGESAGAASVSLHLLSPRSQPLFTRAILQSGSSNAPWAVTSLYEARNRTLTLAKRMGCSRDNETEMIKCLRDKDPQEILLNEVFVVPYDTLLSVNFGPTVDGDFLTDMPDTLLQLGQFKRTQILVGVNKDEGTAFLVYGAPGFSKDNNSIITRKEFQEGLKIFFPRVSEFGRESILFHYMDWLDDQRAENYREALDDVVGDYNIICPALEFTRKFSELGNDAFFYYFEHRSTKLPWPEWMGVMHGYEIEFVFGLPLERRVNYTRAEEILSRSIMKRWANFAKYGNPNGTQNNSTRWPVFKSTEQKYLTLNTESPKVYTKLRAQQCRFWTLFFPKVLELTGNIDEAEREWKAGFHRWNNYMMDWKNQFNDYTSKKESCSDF
# T1 sequence (P22303 whole entry): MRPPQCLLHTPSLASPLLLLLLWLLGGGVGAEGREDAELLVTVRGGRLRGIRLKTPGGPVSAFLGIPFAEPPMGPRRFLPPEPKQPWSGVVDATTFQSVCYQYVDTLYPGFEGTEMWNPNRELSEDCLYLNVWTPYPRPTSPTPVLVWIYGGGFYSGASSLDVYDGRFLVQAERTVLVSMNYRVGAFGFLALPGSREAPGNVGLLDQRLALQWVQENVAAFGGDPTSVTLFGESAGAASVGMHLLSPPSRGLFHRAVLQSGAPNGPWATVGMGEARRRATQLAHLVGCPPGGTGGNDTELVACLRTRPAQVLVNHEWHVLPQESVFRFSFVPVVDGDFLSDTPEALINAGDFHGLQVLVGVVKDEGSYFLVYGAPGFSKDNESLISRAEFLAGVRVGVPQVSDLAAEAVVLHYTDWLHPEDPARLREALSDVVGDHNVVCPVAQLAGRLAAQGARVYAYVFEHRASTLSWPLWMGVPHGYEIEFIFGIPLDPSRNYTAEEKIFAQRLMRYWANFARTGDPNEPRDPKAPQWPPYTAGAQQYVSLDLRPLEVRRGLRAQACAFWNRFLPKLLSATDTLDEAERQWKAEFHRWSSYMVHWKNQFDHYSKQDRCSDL
# Chain of Amyloid-beta precursor protein (Homo sapiens) (P05067 whole entry): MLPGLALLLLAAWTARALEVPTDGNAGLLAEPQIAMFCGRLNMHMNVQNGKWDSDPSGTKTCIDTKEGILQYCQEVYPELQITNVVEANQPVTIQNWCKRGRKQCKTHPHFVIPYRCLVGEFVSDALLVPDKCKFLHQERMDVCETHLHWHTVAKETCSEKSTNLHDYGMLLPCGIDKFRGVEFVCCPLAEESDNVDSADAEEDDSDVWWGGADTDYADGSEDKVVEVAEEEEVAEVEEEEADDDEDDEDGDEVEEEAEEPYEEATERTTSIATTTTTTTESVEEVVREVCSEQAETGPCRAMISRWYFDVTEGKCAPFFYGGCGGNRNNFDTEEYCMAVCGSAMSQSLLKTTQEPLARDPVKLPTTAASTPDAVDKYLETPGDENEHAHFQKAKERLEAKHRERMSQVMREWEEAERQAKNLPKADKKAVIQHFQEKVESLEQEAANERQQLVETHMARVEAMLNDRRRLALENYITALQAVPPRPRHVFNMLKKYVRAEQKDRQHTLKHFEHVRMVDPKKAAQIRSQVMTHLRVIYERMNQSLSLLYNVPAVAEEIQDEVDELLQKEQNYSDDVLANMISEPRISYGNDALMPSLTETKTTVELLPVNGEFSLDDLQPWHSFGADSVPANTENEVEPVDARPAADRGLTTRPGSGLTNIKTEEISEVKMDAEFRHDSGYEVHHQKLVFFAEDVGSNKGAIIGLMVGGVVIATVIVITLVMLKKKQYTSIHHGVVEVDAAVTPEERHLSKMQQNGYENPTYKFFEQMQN
smiles,measurement,setting,value
C#CCNc1nc(NCCCCC2CCN(Cc3ccccc3)CC2)c(C#N)cc1C#N,IC50,Acetylcholinesterase [1],1 nM
CN(CCCCCN1C(=O)c2ccccc2S1(=O)=O)Cc1ccccc1,IC50,Acetylcholinesterase [2],36 nM
same,IC50,Acetylcholinesterase [3],33 nM
same,inhibition,[4],22.2%
COc1cc(/C=C/C(=O)N(CCCC2CCN(Cc3ccccc3)CC2)CC(=O)Nc2c(C)cccc2Cl)ccc1O,IC50,Cholinesterase [5],52.3 nM
same,Activity,[6],5.32 equiv
same,IC50,Acetylcholinesterase [7],29.3 nM
Cn1c(=O)n(C)c2cc(S(=O)(=O)NCC3CCN(Cc4ccc(F)cc4)CC3)ccc21,IC50,Acetylcholinesterase [8],2050 nM
same,IC50,Cholinesterase [9],31 nM
same,Ratio IC50,[10],66.1
O=C(NCCC1CCN(Cc2ccccc2)CC1)c1ccc(Cl)cn1,IC50,[11],13400 nM
same,Papp,[12],10.4 ×10⁻⁶ cm/s
same,IC50,[13],3140 nM
same,IC50,Cholinesterase [5],1230 nM
same,IC50,Acetylcholinesterase [7],220 nM
C#CCNc1nc(NCCCC2CCN(Cc3ccccc3)CC2)c(C#N)cc1C#N,IC50,Acetylcholinesterase [14],1.1 nM
same,IC50,Cholinesterase [15],600 nM
same,IC50,[16],3950 nM
COc1ccc2c(c1)C/C(=C\C1CCN(Cc3ccccc3)CC1)C2=O,IC50,Beta-secretase 1,333 nM
COc1cc2c(cc1OC)C(=O)/C(=C/C1CCN(Cc3ccccc3)CC1)C2,IC50,Beta-secretase 1,697 nM
